Data taken from PubChem BioAssay (NCI).
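These data come from cells grown in 96-well plates and exposed to compound for 48 hours at five concentrations. GI50 = concentration required for 50% inhibition of growth. Definition used: TGI = concentration required for complete inhibition of growth.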

How the values were obtained:
Experiment in all cases: DTP human tumour cell line panel, 48 h; in the data active = GI50 below about 0.43 µM; inactive = the rest
MDA-MB-231 breast = system: MDA-MB-231 breast
K-562 leukemia = system: K-562 leukemia
CCRF-CEM leukemia = system: CCRF-CEM leukemia
NCI-H522 lung = system: NCI-H522 lung
T-47D breast = system: T-47D breast
SN12C renal = system: SN12C renal
HCC-2998 colon = system: HCC-2998 colon
NCI-H226 lung = system: NCI-H226 lung
OVCAR-8 ovarian = system: OVCAR-8 ovarian
SNB-19 CNS = system: SNB-19 CNS
LOX IMVI melanoma = system: LOX IMVI melanoma
UACC-62 melanoma = system: UACC-62 melanoma
UO-31 renal = system: UO-31 renal
CAKI-1 renal = system: CAKI-1 renal
A549 NSCLC = system: A549 NSCLC
U251 CNS = system: U251 CNS
HOP-62 NSCLC = system: HOP-62 NSCLC
ACHN renal = system: ACHN renal
BT-549 breast = system: BT-549 breast
MDA-MB-435 = system: MDA-MB-435
OVCAR-4 ovarian = system: OVCAR-4 ovarian
NCI/ADR-RES ovarian = system: NCI/ADR-RES ovarian
MALME-3M melanoma = system: MALME-3M melanoma
HCT-15 colon = system: HCT-15 colon
HOP-92 NSCLC = system: HOP-92 NSCLC
HS 578T breast = system: HS 578T breast
OVCAR-3 ovarian = system: OVCAR-3 ovarian
EKVX NSCLC = system: EKVX NSCLC
SK-OV-3 ovarian = system: SK-OV-3 ovarian
PC-3 prostate = system: PC-3 prostate
COLO 205 colon = system: COLO 205 colon
786-0 renal = system: 786-0 renal
HCT-116 colon = system: HCT-116 colon
SF-539 CNS = system: SF-539 CNS
MOLT-4 leukemia = system: MOLT-4 leukemia
HL-60(TB) leukemia = system: HL-60(TB) leukemia
NCI-H23 lung = system: NCI-H23 lung
SR leukemia = system: SR leukemia
KM12 colon = system: KM12 colon
RPMI-8226 leukemia = system: RPMI-8226 leukemia
SK-MEL-2 melanoma = system: SK-MEL-2 melanoma
TK-10 renal = system: TK-10 renal
OVCAR-5 ovarian = system: OVCAR-5 ovarian
SK-MEL-5 melanoma = system: SK-MEL-5 melanoma
M14 melanoma = system: M14 melanoma
SW-620 colon = system: SW-620 colon
MCF7 breast = system: MCF7 breast
IGROV1 ovarian = system: IGROV1 ovarian
DU-145 prostate = system: DU-145 prostate
SK-MEL-28 melanoma = system: SK-MEL-28 melanoma
SF-268 CNS = system: SF-268 CNS
HT29 colon = system: HT29 colon
SNB-75 CNS = system: SNB-75 CNS
NCI-H460 lung = system: NCI-H460 lung
SF-295 CNS = system: SF-295 CNS

CC(C)(Oc1ccc(Cl)cc1)C(=O)NC1C2CC3CC1CC(NS(C)(=O)=O)(C3)C2 (stereo not given)
58.8 µM: TGI (HL-60(TB) leukemia)
inactive: GI50 (MDA-MB-231 breast) 66.8 µM | GI50 (K-562 leukemia) 34.3 µM | GI50 (CCRF-CEM leukemia) 39.1 µM | GI50 (NCI-H522 lung) > 100 µM | GI50 (T-47D breast) > 100 µM | GI50 (SN12C renal) > 100 µM | GI50 (HCC-2998 colon) > 100 µM | GI50 (NCI-H226 lung) > 100 µM | GI50 (OVCAR-8 ovarian) > 100 µM | GI50 (SNB-19 CNS) > 100 µM | GI50 (LOX IMVI melanoma) > 100 µM | GI50 (UACC-62 melanoma) 24.1 µM | GI50 (UO-31 renal) > 100 µM | GI50 (CAKI-1 renal) > 100 µM | GI50 (A549 NSCLC) > 100 µM | GI50 (U251 CNS) > 100 µM | GI50 (HOP-62 NSCLC) > 100 µM | GI50 (ACHN renal) 27.4 µM | GI50 (BT-549 breast) 29.1 µM | GI50 (MDA-MB-435) > 100 µM | GI50 (OVCAR-4 ovarian) 23.3 µM | GI50 (NCI/ADR-RES ovarian) > 100 µM | GI50 (MALME-3M melanoma) 55.5 µM | GI50 (HCT-15 colon) > 100 µM | GI50 (HOP-92 NSCLC) 19 µM | GI50 (HS 578T breast) 33.2 µM | GI50 (OVCAR-3 ovarian) > 100 µM | GI50 (EKVX NSCLC) > 100 µM | GI50 (SK-OV-3 ovarian) > 100 µM | GI50 (PC-3 prostate) 30.7 µM | GI50 (COLO 205 colon) > 100 µM | GI50 (786-0 renal) 37.4 µM | GI50 (HCT-116 colon) 38.5 µM | GI50 (SF-539 CNS) 37.5 µM | GI50 (MOLT-4 leukemia) 20.7 µM | GI50 (HL-60(TB) leukemia) 22.7 µM | GI50 (NCI-H23 lung) > 100 µM | GI50 (SR leukemia) 18.5 µM | GI50 (KM12 colon) > 100 µM | GI50 (RPMI-8226 leukemia) 20.9 µM | GI50 (SK-MEL-2 melanoma) > 100 µM | GI50 (TK-10 renal) > 100 µM | GI50 (OVCAR-5 ovarian) 68.4 µM | GI50 (SK-MEL-5 melanoma) > 100 µM | GI50 (M14 melanoma) 26.2 µM | GI50 (SW-620 colon) > 100 µM | GI50 (MCF7 breast) > 100 µM | GI50 (IGROV1 ovarian) 54.9 µM | GI50 (DU-145 prostate) > 100 µM | GI50 (SK-MEL-28 melanoma) 26.8 µM | GI50 (SF-268 CNS) > 100 µM | GI50 (HT29 colon) > 100 µM | GI50 (SNB-75 CNS) 42.8 µM | GI50 (NCI-H460 lung) > 100 µM | GI50 (SF-295 CNS) > 100 µM
84.6 µM: TGI (MOLT-4 leukemia)
68.1 µM: TGI (RPMI-8226 leukemia)
> 100 µM: TGI (MDA-MB-231 breast) | TGI (K-562 leukemia) | TGI (CCRF-CEM leukemia) | TGI (NCI-H522 lung) | TGI (T-47D breast) | TGI (SN12C renal) | TGI (HCC-2998 colon) | TGI (NCI-H226 lung) | TGI (OVCAR-8 ovarian) | TGI (SNB-19 CNS) | TGI (LOX IMVI melanoma) | TGI (UACC-62 melanoma) | TGI (UO-31 renal) | TGI (CAKI-1 renal) | TGI (A549 NSCLC) | TGI (U251 CNS) | TGI (HOP-62 NSCLC) | TGI (ACHN renal) | TGI (MDA-MB-435) | TGI (OVCAR-4 ovarian) | TGI (NCI/ADR-RES ovarian) | TGI (MALME-3M melanoma) | TGI (HCT-15 colon) | TGI (HS 578T breast) | TGI (OVCAR-3 ovarian) | TGI (EKVX NSCLC) | TGI (SK-OV-3 ovarian) | TGI (PC-3 prostate) | TGI (COLO 205 colon) | TGI (786-0 renal) | TGI (HCT-116 colon) | TGI (SF-539 CNS) | TGI (NCI-H23 lung) | TGI (KM12 colon) | TGI (SK-MEL-2 melanoma) | TGI (TK-10 renal) | TGI (OVCAR-5 ovarian) | TGI (SK-MEL-5 melanoma) | TGI (SW-620 colon) | TGI (MCF7 breast) | TGI (IGROV1 ovarian) | TGI (DU-145 prostate) | TGI (SK-MEL-28 melanoma) | TGI (SF-268 CNS) | TGI (HT29 colon) | TGI (SNB-75 CNS) | TGI (NCI-H460 lung) | TGI (SF-295 CNS)
69.1 µM: TGI (HOP-92 NSCLC)
58.9 µM: TGI (SR leukemia)
80.1 µM: TGI (M14 melanoma)
83.2 µM: TGI (BT-549 breast)
